This passage reports viability results from paper PMC12040169 (PLOS Biology, 2025).

One may read the viability as a read-out of living cells in per cent, often relative to untreated cells.

The series in a line: in vitro. The following applies: human, hela cells, % viability.

With `CC(C)(C)C(=O)Nc1ccc(-c2nc3ccc(Cc4ccc5nc(-c6ccc(NC(=O)C(C)(C)C)cc6)oc(=O)c5c4)cc3c(=O)o2)cc1` [CBK261396], the viability at 28.5 h, 10 µM amounted to 104%.

On to `NC(=O)[C@@H]1C[C@@H](O)[C@H](O)[C@H]2[C@@H]1N(c1ccc(Cl)cc1)C(=S)N2CC1CCCCC1` [CBK288933], for which the viability at 28.5 h, 10 µM was determined as 86.8%.

Turning to `CCS(=O)(=O)Nc1cc(N2CCNCC2)c2occc2c1` [CBK059429C], the viability at 28.5 h, 10 µM came to 118%.

As for `O=C(Nc1ccc2c(c1)OCCO2)N1CCN(c2ccccc2)CC1` [CBK155187], the viability at 28.5 h, 10 µM was found to be 94.7%.

On to `CC(C)CNc1nc(-c2cccc(N(C)C)c2)cnc1N` [CBK063870], for which the viability at 28.5 h, 10 µM turned out to be 97%.

Take `NS(=O)(=O)c1ccc(S(=O)(=O)N2CCN(C/C=C/c3ccccc3)CC2)cc1` [CBK266723C]: the viability at 28.5 h, 10 µM amounted to 95.8%.

Take `CCCC1SCC(=O)N1c1nncs1` (centres unmarked) [CBK023497]: the viability at 28.5 h, 10 µM was found to be 95.4%.

Consider `Cc1nc(-c2ccccc2)sc1C(=O)C1=C(O)C(=O)N(CCCN2CCOCC2)C1c1ccco1` (centres unmarked) [CBK266476], for which the viability at 28.5 h, 10 µM was found to be 111%.

Regarding `Cc1nn2c(-c3ccc(NC(=O)c4cccs4)cc3)nnc2c2ccccc12` [CBK267134], the viability at 28.5 h, 10 µM stood at 89.6%.

As for `Cc1ccc(-c2nnc(CNC(=O)Cc3ccccc3F)o2)s1` [CBK284644], the viability at 28.5 h, 10 µM came out at 78.4%.

As to `O=C(Nc1ncc(Cl)s1)C1CC(=O)N(C2CC2)C1` (centres unmarked) [CBK175551], the viability at 28.5 h, 10 µM was 102%.

Consider `COc1cccc(CCN2N=C(C)CC2=O)c1OC` [CBK067766], for which the viability at 28.5 h, 10 µM worked out at 100%.

`COc1ccccc1C(=O)Nc1ccccc1C(=O)Nc1ccc(C(=O)O)cc1` [CBK268625]: the viability at 28.5 h, 10 µM is 94.7%.

On to `O=C(c1c[nH]c(-c2ncn[nH]2)c1)c1ccc(Cl)cc1Cl` [CBK008334], for which the viability at 28.5 h, 10 µM worked out at 93.4%.

Consider `Nc1ncc(-c2cc(C(F)(F)F)cc(C(F)(F)F)c2)nc1N1CCN(CCO)CC1` [CBK063426], for which the viability at 28.5 h, 10 µM is 103%.

With `Cc1nc(C(=O)N(C)C(C)c2cc3ccccc3o2)nn1-c1ccc(F)cc1` (centres unmarked) [CBK296657], the viability at 28.5 h, 10 µM came out at 108%.

On to `CN(C)CCN(Cc1ccccc1)C(=O)NCc1c(Cl)cccc1Cl` [CBK155107], for which the viability at 28.5 h, 10 µM was 97.3%.

For `O=C(O)COc1ccc(Br)cn1` [CBK026021], the viability at 28.5 h, 10 µM came to 104%.

Consider `O=C(Cn1cccn1)NCC(c1ccccc1Cl)N1CCOCC1` (centres unmarked) [CBK305593], for which the viability at 28.5 h, 10 µM came out at 93.1%.

Turning to `O=C(O)CC(CNC(=O)Cc1c[nH]c2ccccc12)c1ccc(Cl)cc1` (centres unmarked) [CBK286598], the viability at 28.5 h, 10 µM is 91.7%.

Take `CC(CCc1ccccc1)NC1CCCc2c1[nH]c1ccc([N+](=O)[O-])cc21` (centres unmarked) [CBK262875]: the viability at 28.5 h, 10 µM turned out to be 73.2%.

Take `COc1cc(/C=N/NC(=O)c2ccncc2)ccc1OCc1ccc(Cl)cc1` [CBK262454]: the viability at 28.5 h, 10 µM came to 114%.

As for `O=C(CC1CCCCC1)Nc1ccc(Cl)nc1` [CBK091349], the viability at 28.5 h, 10 µM turned out to be 83.5%.

Turning to `C#CCNC(=O)c1nn(-c2nc3ccccc3s2)c2ccccc12` [CBK048486], the viability at 28.5 h, 10 µM worked out at 99.2%.

Regarding `NC(=O)c1sc2cc(C(F)(F)F)cnc2c1-c1cccs1` [CBK089891], the viability at 28.5 h, 10 µM came to 88.2%.

As to `O=C1CCCCC1SCn1nnc2ccccc21` (centres unmarked) [CBK011412], the viability at 28.5 h, 10 µM is 94.8%.

On to `Cc1ccc(C(=O)NCc2cccnc2N(C)C2CCCCC2)cn1` [CBK306514], for which the viability at 28.5 h, 10 µM amounted to 116%.

As for `c1ccc(CSc2nc3ccccc3s2)nc1` [CBK027737], the viability at 28.5 h, 10 µM was found to be 76.2%.

For `Cc1ccc(N2C(=O)CC(Sc3ncccc3C(=O)O)C2=O)cc1` (centres unmarked) [CBK287761], the viability at 28.5 h, 10 µM came out at 87.7%.

For `Cc1c(-c2noc(-c3ccc4c(c3)OCO4)n2)nnn1Cc1ccccc1` [CBK288609], the viability at 28.5 h, 10 µM was 116%.

Consider `c1ccc(OCCSc2cc(N3CCCC3)ncn2)cc1` [CBK103689], for which the viability at 28.5 h, 10 µM was determined as 113%.

Regarding `CNc1snc(N2CCOCC2)c1C#N` [CBK011453], the viability at 28.5 h, 10 µM amounted to 93%.

Consider `Cc1cc(C(=O)Nc2c(C)noc2C)n[nH]1` [CBK200395], for which the viability at 28.5 h, 10 µM worked out at 87.4%.

`COc1ccc(Sc2cc3n(c(=O)n2)CCc2cc(OC)c(OC)cc2-3)cc1` [CBK291186]: the viability at 28.5 h, 10 µM turned out to be 81.9%.

`Cc1ccc(S(=O)(=O)NCC(=O)O)c2nsnc12` [CBK261140]: the viability at 28.5 h, 10 µM was determined as 93.1%.

On to `CCCCOc1ccc(S(=O)(=O)N2CCN(c3cccc(C)c3C)CC2)cc1` [CBK099293], for which the viability at 28.5 h, 10 µM was 114%.

Regarding `CN(Cc1ccsc1)C(=O)c1cccc(S(=O)(=O)NCC2CCCO2)c1` (centres unmarked) [CBK304232], the viability at 28.5 h, 10 µM came out at 83.7%.

With `Cc1cc(=O)oc2cc(NC(=S)NNC(=O)c3ccc(Cl)s3)ccc12` [CBK266828], the viability at 28.5 h, 10 µM was 92.3%.

Consider `FC(F)(F)c1cccc(OCCN2CCOCC2)c1` [CBK269669C], for which the viability at 28.5 h, 10 µM was 96.8%.

For the molecule `COc1ccccc1-c1coc2cc(OC(=O)c3c(C)oc4ccc(OC(C)=O)cc34)ccc2c1=O` [CBK265191], the viability at 28.5 h, 10 µM is 92%.

With `COc1ccc(C(=O)NCCc2nc3ccccc3[nH]2)cc1` [CBK261040], the viability at 28.5 h, 10 µM was 101%.

On to `Cc1ncc([N+](=O)[O-])n1Cc1nnc(S)n1C` [CBK267873], for which the viability at 28.5 h, 10 µM stood at 95.4%.

Regarding `CC1CCc2c(sc(Nc3nc4c(F)cccc4s3)c2C(N)=O)C1` (centres unmarked) [CBK287477], the viability at 28.5 h, 10 µM stood at 102%.

`CCOC(=O)NC(Nc1cccc(C)n1)(C(F)(F)F)C(F)(F)F` [CBK261343]: the viability at 28.5 h, 10 µM was determined as 115%.

Turning to `CN(C)C(=O)CN1N=C(C(C)(C)C)Cn2c(cc3ccccc32)C1=O` [CBK284210], the viability at 28.5 h, 10 µM was determined as 81.8%.

As for `CCCC/C=C/c1cnc(N2CCOCC2)c2nccn12` [CBK091256], the viability at 28.5 h, 10 µM is 102%.

With `CN(C)Cc1ncccc1OCCO` [CBK001411C], the viability at 28.5 h, 10 µM was determined as 111%.

With `CN(CCN1CCCC1)c1nccc(N2CCN[C@H]3CS(=O)(=O)C[C@H]32)n1` [CBK306692], the viability at 28.5 h, 10 µM came to 85.6%.

For the molecule `COc1cc([N+](=O)[O-])ccc1NC(=O)CN(C)S(=O)(=O)c1ccc2ccccc2c1` [CBK267387], the viability at 28.5 h, 10 µM was 97.5%.

As to `CCOC(=O)C1(c2ccccc2)CCN(C(=O)COc2ccc(F)cc2)CC1` [CBK132176], the viability at 28.5 h, 10 µM (bulk resorufin, single well) was determined as 93.8%.

Regarding `OCC[C@H]1CN2CCCC2CN1Cc1cccc(Cl)c1Cl` (some centres unmarked) [CBK285429], the viability at 28.5 h, 10 µM is 86.6%.

Turning to `Cc1nn(-c2ccccc2)c2[nH]c(=O)c(CNC3CCC3)cc12` [CBK282897], the viability at 28.5 h, 10 µM amounted to 103%.

With `CCN1CCN(Cc2c(O)ccc3c(=O)c(Oc4ccccc4Cl)c(C(F)(F)F)oc23)CC1` [CBK266627], the viability at 28.5 h, 10 µM was 107%.

For `O=C(CSCc1ccc(Cl)cc1Cl)Nc1ccc(Oc2ccc3c(c2)C(=O)NC3=O)cc1` [CBK266779], the viability at 28.5 h, 10 µM was found to be 92.2%.

In the case of `CC(C)(C)CC(=O)NS(=O)(=O)c1cccc(-c2nnco2)c1` [CBK305258], the viability at 28.5 h, 10 µM turned out to be 78%.

Consider `O=C(c1ccc(F)cc1)C1CCN(C(=O)c2cccnc2NCc2ccc3c(c2)OCO3)CC1` [CBK160114], for which the viability at 28.5 h, 10 µM stood at 113%.

For `O=C(NCCn1c(=O)oc2ccccc21)C(c1cccs1)c1cccs1` [CBK286198], the viability at 28.5 h, 10 µM was 99.8%.

As for `CC(C)(C)C(=O)c1cnc2sc3ccccc3n12` [CBK016512], the viability at 28.5 h, 10 µM was determined as 91.6%.

Turning to `Cc1ncccc1-c1cc2cccnc2n1CCCNC(=O)C1CC1C` (centres unmarked) [CBK282688], the viability at 28.5 h, 10 µM was found to be 101%.

As for `O=C(N/N=C/c1ccc(OC(=O)c2cccs2)cc1)c1ccccn1` [CBK262178], the viability at 28.5 h, 10 µM amounted to 107%.

As for `COc1ccc(OCCn2c(C(C)O)nc3ccccc32)cc1` (centres unmarked) [CBK269905], the viability at 28.5 h, 10 µM worked out at 93.2%.

In the case of `Cc1cccc(Nc2ncnc3ccccc23)c1` [CBK072827], the viability at 28.5 h, 10 µM came out at 114%.

`C=CCn1c(Cc2csc(NC(=O)c3cc4ccccc4o3)n2)n[nH]c1=S` [CBK295329]: the viability at 28.5 h, 10 µM amounted to 104%.

`CCOC(=O)c1c(NC(=O)Cn2cnc([N+](=O)[O-])n2)sc2c1CCC(C)C2` (centres unmarked) [CBK263058]: the viability at 28.5 h, 10 µM was determined as 120%.

Consider `CN1C(=O)C(C)(C)Oc2ccc(C(O)c3ccco3)cc21` (centres unmarked) [CBK284469], for which the viability at 28.5 h, 10 µM stood at 89.8%.

For the molecule `CC1CC(C)CN(C2CCN(Cc3ccccn3)CC2)C1` (centres unmarked) [CBK264639G], the viability at 28.5 h, 10 µM came out at 99.4%.

Consider `N#Cc1c(-c2ccc(Cl)cc2)c[nH]c1N` [CBK019323], for which the viability at 28.5 h, 10 µM worked out at 104%.

In the case of `O=C(Cn1cc(/C=C2\C(=O)NC(=S)N(c3cccc(F)c3)C2=O)c2ccccc21)Nc1ccccc1` [CBK265152], the viability at 28.5 h, 10 µM (bulk resorufin, single well) amounted to 106%.

`Cc1cc(C(=O)Nc2nnc[nH]2)ccc1[N+](=O)[O-]` [CBK264719]: the viability at 28.5 h, 10 µM was found to be 99.7%.

As for `O=C(O)CN1C(=O)c2ccc(C(=O)c3ccc4c(c3)C(=O)N(CC(=O)O)C4=O)cc2C1=O` [CBK262166], the viability at 28.5 h, 10 µM was found to be 82.3%.

For `COc1ccc(Nc2nc(-c3cccc(-c4ccccc4)c3)cnc2N)cc1` [CBK063593], the viability at 28.5 h, 10 µM came out at 89.8%.

As to `O=C(O)c1cc(S(=O)(=O)N2CCOCC2)c(Cl)cc1NC1CCCCC1` [CBK264576], the viability at 28.5 h, 10 µM turned out to be 97.8%.

For `O=S(=O)(NCc1ccccn1)c1ccc(Cl)c(Cl)c1Cl` [CBK263978], the viability at 28.5 h, 10 µM came out at 95.6%.

Regarding `O=C(NC(C(=O)c1ccccc1)N1CCCCC1)c1ccccc1` (centres unmarked) [CBK261035], the viability at 28.5 h, 10 µM was 123%.

Consider `COc1cc(C2NC(=O)NC(O)(C(F)(F)F)C2C(=O)c2ccccc2)ccc1OCc1ccccc1` (centres unmarked) [CBK264957], for which the viability at 28.5 h, 10 µM is 114%.

As for `CN(Cc1ccccc1)C(=O)c1c[nH]nc1C1CCCN(CC2CCCCC2)C1` (centres unmarked) [CBK286489], the viability at 28.5 h, 10 µM is 94.4%.

For `CC(C)c1ccc(C(C)NC(=O)Cn2cc(C(=O)Nc3ccc(F)cc3)ccc2=O)cc1` (centres unmarked) [CBK286049], the viability at 28.5 h, 10 µM was 97.6%.

As to `Cc1ccc(C(=O)Nc2ncn(CC(=O)N3CCCCCC3)n2)cc1` [CBK304569], the viability at 28.5 h, 10 µM was 106%.

`COc1cccc(CC(=O)NCc2ccccc2OC2CCNC2)c1` (centres unmarked) [CBK024487T]: the viability at 28.5 h, 10 µM was 88.5%.

For the molecule `Fc1ccccc1CN1CCC(Oc2cncc(OCCN3CCOCC3)n2)C1` (centres unmarked) [CBK084479], the viability at 28.5 h, 10 µM was 94.9%.
